Source: patent publication US11384109B2, “Method for separating phenolic acid glucoside compounds from Diaphragma juglandis Fructu” (Jiangnan University, priority 2020, dated 2022)
Marks after values point to notes of the source that are not given here.

Legend:
[1] = system: aging model mice induced by D-galactose; assay: Antioxidant effects in subacute aging model mice induced by D-galactose (serum SOD by ELISA, liver MDA by colorimetry); format: in vivo, ICR mice; details: 500 mg/kg by gavage for 6 weeks; for Liver MDA / Serum SOD: 150 mg/kg D-galactose s.c., 24 hours after last administration, x ± s, 10 mice per group; for Liver MDA: 10% liver homogenate; for liver MDA content compared with the model group / serum SOD activity compared with the model group: result in words, One-way ANOVA Dunnett test
Source text: 1.1 Animals: ICR mice, 6 weeks old, 20-25 g, SPF grade, purchased from Shanghai Slack Experimental Animal Co., Ltd.
1.2 Reagents: D-galactose, purchased from Sigma, USA; malondialdehyde (MDA) kit, purchased from Nanjing Jiancheng Bioengineering Institute; superoxide dismutase (SOD) kit, purchased from Shanghai Aisalai Eliza Biotechnology Co., Ltd.
2.1 Animal grouping and administration: after one week of adaptive feeding, mice were randomly divided into 5 groups, 10 mice each group. The administration group was gavaged with Compounds 1-3, 500 mg/kg per compound. The blank group and aging model group were gavaged with equal volume of normal saline for 6 weeks. At the same time, 150 mg/kg D-galactose was injected subcutaneously into the aging model group and the administration group respectively to establish a subacute aging model of mice. The blank control group was injected with equal volume of normal saline for 6 weeks.
2.2 Sample preparation and index determination: 24 hours after the last administration, blood was collected from the eyeballs of mice; after dislocation for execution, the liver was removed, cleaned and ground at low temperature to prepare 10% tissue homogenate, which was centrifuged at 3500 rpm and 4° C. for 10 min, and supernatant was taken and stored at −20° C. The content of MDA in the liver tissue was determined by colorimetry, and the activity of SOD in serum was determined by ELISA.
2.3 Statistical analysis: the results were expressed as x±s. The results were analyzed by One-way ANOVA Dunnett test using SPSS 20 software.

[2] = Solubility description of the isolated compounds

Compound	Liver MDA [1]	Serum SOD [1]	liver MDA content compared with the model group [1]	serum SOD activity compared with the model group [1]	solubility in chloroform [2]	solubility in water, ethanol and the like [2]
2,6-dihydroxynaphthyl-O-β-D-glucopyranoside [Compound 3]	0.183 ± 0.051^a nmol/mg tissue	103.44 ± 15.75^a U/mL	significantly (P<0.05) lower than that in the model group	significantly (P<0.05) higher than that in the model group	insoluble	soluble
COc1ccc(O)c(O[C@@H]2O[C@H](CO)[C@@H](O)[C@H](O)[C@H]2O)c1 [Compound 1, 2-hydroxyl-5-methoxylphenyl-O-β-D-glucopyranoside]	0.211 ± 0.019^a nmol/mg tissue	94.90 ± 8.07^a U/mL	significantly (P<0.05) decreased	significantly (P<0.05) increased	insoluble	soluble
OC[C@H]1O[C@@H](Oc2ccc3cc(O)ccc3c2O[C@@H]2O[C@H](CO)[C@@H](O)[C@H](O)[C@H]2O)[C@H](O)[C@@H](O)[C@@H]1O [Compound 2, 6-hydroxylnaphthyl-1,2-di-O-β-D-glucopyranoside]	0.198 ± 0.037^a nmol/mg tissue	97.06 ± 10.18^a U/mL	significantly (P<0.05) decreased	significantly (P<0.05) increased		
